The source of these data is patent publication US9867831B2, “Combination treatment of acute myeloid leukemia and myelodysplastic syndrome” (Boehringer Ingelheim International GmbH, priority 2014, dated 2018).

In the experiment the test system is human AML cell line MV4;11. Briefly: Nude mouse xenograft model derived from human AML cell line MV4;11 (tumor growth). In kind it is in vivo. The note with it: MV4;11 s.c. xenograft in nude mice; Volasertib 20 mg/kg once a week i.v., Quizartinib 5 or 10 mg/kg daily p.o.; treated 14 days, observation without treatment up to day 87. A general note: Xenograft models place foreign cells or tissue in a host animal.

Protocol: Median tumor volumes are plotted over time. Day 1 was the first day, day 87 the last day of the experiment.
MV4;11 (CRL-9591) cells were obtained from ATCC. […] Cells were cultured in T175 tissue culture flasks at 37° C. and 5% CO2. The medium used was IMDM supplemented with 10% fetal calf serum, 1% NEAA, 1% sodium pyruvate and 1% glutamine.
Mice were 8 week-old athymic female BomTac: NMRI-Foxn1^nu purchased from Taconic, Denmark. After arrival in the animal facility, mice were allowed to adjust to ambient conditions for at least 3 days before they were used for experiments. They were housed in Macrolon® type II cages in groups of 5 under standardized conditions at 21.5±1.5° C. temperature and 55±10% humidity. Standardized diet (PROVIMI KLIBA) and autoclaved tap water were provided ad libitum.
To establish subcutaneous tumors, MV4;11 cells were harvested and resuspended in PBS+5% FCS at 5×10^7 cells/ml. 50 μl of the cell suspension containing 2.5×10^6 cells was then injected subcutaneously into the right flank of the mice (1 site per mouse). […]
The tumor diameter was measured three times a week with a caliper. The volume of each tumor [in mm^3] was calculated according to the formula “tumor volume=length*diameter^2*π/6”. To monitor side effects of treatment, mice were inspected daily for abnormalities and body weight was determined three times a week. […]

With `CC(C)(C)c1cc(NC(=O)Nc2ccc(-c3cn4c(n3)sc3cc(OCCN5CCOCC5)ccc34)cc2)no1` [Quizartinib], the “tumor growth kinetics (median tumor volumes over time)” value is reported as “outgrowth of the tumor”.
